Consider eleven compounds from patent US8969345B2, “Dibenzooxepin derivative” (Kyowa Hakko Kirin Co., Ltd., priority 2011, dated 2015).

Structures are written as SMILES.

Series [1] deals with T1, GAL4-PPAR γ chimeric nuclear receptor (human PPAR γ ligand binding domain) (Homo sapiens, UniProt P37231).
T1 construct: expressed in transfected cells; host or cells: HEK293EBNA cells, transient transfection with SuperFect
T1 sequence (P37231 174-475 isoform P37231-2): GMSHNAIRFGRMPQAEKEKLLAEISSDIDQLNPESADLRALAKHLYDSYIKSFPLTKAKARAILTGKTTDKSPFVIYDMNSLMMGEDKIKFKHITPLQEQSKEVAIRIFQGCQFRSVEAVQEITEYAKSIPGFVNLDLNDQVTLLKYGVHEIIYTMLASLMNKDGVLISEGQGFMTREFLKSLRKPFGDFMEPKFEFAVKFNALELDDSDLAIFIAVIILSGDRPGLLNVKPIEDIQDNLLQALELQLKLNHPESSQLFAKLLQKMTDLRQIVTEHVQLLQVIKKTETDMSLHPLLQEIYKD
In words: PPAR γ transactivation assay by transient gene transfer (GAL4-PPAR γ chimeric receptor, luciferase reporter, HEK293EBNA cells). The class given is cell-based. The note with it: concentration showing 50% of efficacy (maximum activity rate relative to pioglitazone = 100%), 24 hr. As for the experimental part: The agonist activity of the test compound to PPAR γ was determined by a transactivation assay method using a chimeric nuclear receptor of a DNA binding region of a yeast transcription factor GAL4 and a PPAR γ ligand binding region. Specifically, the PPAR γ agonist activity of the test compound was evaluated by the following method based on the method of Lehmann et al. (J Biol. Chem., 1995, vol. 270, page 12953).
HEK293EBNA cells cultured in Dulbecco's Modified Eagle medium (Invitrogen) containing 10 v/v % fetal bovine serum (Invitrogen) were used. 30 mL of the above-mentioned cells (density: 1×10^5 cells/mL) were inoculated in a […] (Iwaki Glass), and cultured overnight. Using SuperFect Transfection Reagent (QIAGEN), a plasmid expressing a GAL4-PPAR γ chimeric nuclear receptor fusing 174-475 amino acids, which are human PPAR γ ligand binding domain, and 1-147 amino acids, which are GAL4 DNA binding domain, and a reporter plasmid expressing a GAL4 responsive luciferase were transiently introduced into the cells at a proportion of 4:1. After 5 hr from transfection, the cells were detached from the culture dish, and the detached cells (density: 2×10^4 cells/mL) were inoculated by 100 μL in each well of a 96 well white plate (SUMITOMO BAKELITE), and cultured overnight. The medium was removed, the test compound diluted in various concentrations with serum-free Dulbecco's Modified Eagle medium was added by 100 μL, and the mixture was reacted under a 5% carbon dioxide gas stream (5% CO2) at 37° C. for 24 hr. On the other hand, as a positive control, 10 μmol/L of pioglitazone (100 μL) was added, and the mixture was reacted under a 5% carbon dioxide gas stream (5% CO2) at 37° C. for 24 hr. As a substrate of luciferase, 100 μL of Steady-Glo (Promega) was added to each well and the mixture was thoroughly stirred. Immediately thereafter, the chemical luminescence due to luciferase was measured using TopCount NTX (Packard).
The agonist activity (activity rate (%)) of the test compound to PPAR γ was calculated according to the following formula, as a relative activity when the agonist activity on addition of pioglitazone ([…]) was 100%.

Series [2] is described as follows: Metabolic stability evaluation in human liver microsome. It is filed as in vitro ADME. Conditions: liver microsomes, pH 7.4; human liver microsome 0.2 mg/mL protein, test compound 1 μmol/L, β-NADPH, 37° C., 30 min; average of two samples; read-out: hCLint (converted). As for the experimental part:
Human liver microsome (pool of 50 donors) was purchased from XenoTech. A reaction mixture containing phosphate buffer (100 mmol/L, pH 7.4), ethylenediamine tetraacetic acid (0.1 mmol/L), magnesium chloride (6 mmol/L), human liver microsome (0.2 mg/mL protein) and test compound (1 μmol/L) was prepared. The reaction mixture was preincubated at 37° C. for 5 min, β-NADPH (1 mmol/L) was added and the mixture was incubated at 37° C. for 30 min. The protein was removed with acetonitrile from the sample after the reaction and the sample was measured by LC-MS/MS. The ratio of the organic solvent in the reaction mixture was set to about 0.5%, and the reaction was performed in 2 samples.
The elimination rate constant (ke) was calculated from the linear regression of the logarithm plot of the residual ratio of the test compound and at 30 min after the reaction, and the liver inherent clearance (Cint) was calculated by the following formula.
[formula] ke: elimination rate constant (1/h) a: concentration (mg/mL) of liver microsome in the reaction mixture b: liver microsome amount per liver unit weight (32.3 mg/g liver) c: liver weight per unit body weight (25.7 g liver/kg body weight) Each test compound was tested in two samples, and the average thereof was calculated.

By EC50 is commonly meant the concentration giving half of the maximal effect. A lower EC50 goes with an effect from little substance. As for `CC/C(=C1/c2ccc(Cn3c(COC)nc4ccccc43)cc2COc2cc(F)ccc21)c1noc(=O)[nH]1` [Compound 4l, (E)-3-[1-(3-fluoro-8-{[2-(methoxymethyl)-1H-benzo[d]imidazol-1-yl]methyl}dibenzo[b,e]oxepin-11(6H)-ylidene)propyl]-1,2,4-oxadiazol-5(4H)-one], in series [1], the EC50 is 38 nM. The CLint scaled at 1 μmol/L in series [2] is 36.7 mL/min/kg.
The matching figures for `CCCc1nc(C)nc(N2CCC2)c1Cc1ccc2c(c1)COc1cc(F)ccc1/C2=C(\C)c1noc(=O)[nH]1` [Compound 13g, (E)-3-[1-(8-{[4-(azetidin-1-yl)-2-methyl-6-propylpyrimidin-5-yl]methyl}-3-fluorodibenzo[b,e]oxepin-11(6H)-ylidene)ethyl]-1,2,4-oxadiazol-5(4H)-one]: 209 nM and 65 mL/min/kg.
For `O=c1[nH]c(/C(=C2\c3ccc(Cc4c(C5CC5)nc5ccccn45)cc3COc3cc(F)ccc32)C2CC2)no1` [Compound 12c] the same measures were 78.2 nM and 65 mL/min/kg.
For the compound `C/C(=C1/c2ccc(Cc3c(C4CC4)nc4c(C)nccn34)cc2COc2cc(F)ccc21)c1noc(=O)[nH]1` [Compound 14a, (E)-3-(1-{8-[(2-cyclopropyl-8-methylimidazo[1,2-a]pyrazin-3-yl)methyl]-3-fluorodibenzo[b,e]oxepin-11(6H)-ylidene}ethyl)-1,2,4-oxadiazol-5(4H)-one], in series [1], it took 15.9 nM to reach a half-maximal effect (EC50). The CLint scaled at 1 μmol/L in series [2] was 30 mL/min/kg.
As for `[2H]C([2H])([2H])Oc1cccc2c1nc(COC)n2Cc1ccc2c(c1)COc1cc(F)ccc1/C2=C(\C)c1noc(=O)[nH]1` [Compound 2a, (E)-3-[1-(3-fluoro-8-{[4-(methoxy-d3)-2-(methoxymethyl)-1H-benzo[d]imidazol-1-yl]methyl}dibenzo[b,e]oxepin-11(6H)-ylidene)ethyl]-1,2,4-oxadiazol-5(4H)-one], in series [1], a half-maximal effect (EC50) was put at 45.6 nM. The CLint scaled at 1 μmol/L in series [2] is 7.33 mL/min/kg.
In turn, `C/C(=C1/c2ccc(Cc3c(C4CC4)nc4nc(C(F)(F)F)ccn34)cc2COc2cc(F)ccc21)c1noc(=O)[nH]1` [Compound 11h, (E)-3-[1-(8-{[2-cyclopropyl-7-(trifluoromethyl)imidazo[1,2-a]pyrimidin-3-yl]methyl}-3-fluorodibenzo[b,e]oxepin-11(6H)-ylidene)ethyl]-1,2,4-oxadiazol-5(4H)-one] yielded a concentration giving a half-maximal response (EC50) in series [1] of 19 nM. Besides, the CLint scaled at 1 μmol/L in series [2] is 90 mL/min/kg.
Consider `C/C(=C1/c2ccc(Cc3c(C4CC4)nc4c(Cl)cccn34)cc2COc2cc(F)ccc21)c1noc(=O)[nH]1` [Compound 8a, (E)-3-(1-{8-[(8-chloro-2-cyclopropylimidazo[1,2-a]pyridin-3-yl)methyl]-3-fluorodibenzo[b,e]oxepin-11(6H)-ylidene}ethyl)-1,2,4-oxadiazol-5(4H)-one], for which the 50% effective concentration (EC50) in series [1] stood at 4.2 nM. Besides, the CLint scaled at 1 μmol/L in series [2] is 36.7 mL/min/kg.
With `C/C(=C1/c2ccc(Cn3c(C4CCC4)nc4c(Cl)nccc43)cc2COc2cc(F)ccc21)c1noc(=O)[nH]1` [Compound 3b, (E)-3-(1-{8-[(4-chloro-2-cyclobutyl-1H-imidazo[4,5-c]pyridin-1-yl)methyl]-3-fluorodibenzo[b,e]oxepin-11(6H)-ylidene}ethyl)-1,2,4-oxadiazol-5(4H)-one], the EC50 in series [1] is 22.8 nM. For the same compound, the CLint scaled at 1 μmol/L in series [2] was 9.5 mL/min/kg.
On to `C/C(=C1/c2ccc(Cn3c(C(C)C)nc(Cl)c3Cl)cc2COc2cc(F)ccc21)c1noc(=O)[nH]1` [Compound 13c, (E)-3-(1-{8-[(4,5-dichloro-2-isopropyl-1H-imidazol-1-yl)methyl]-3-fluorodibenzo[b,e]oxepin-11(6H)-ylidene}ethyl)-1,2,4-oxadiazol-5(4H)-one], for which the EC50 in series [1] is 39.9 nM. The CLint scaled at 1 μmol/L in series [2] is 88.3 mL/min/kg.
For the compound `COCc1nc2cscc2n1Cc1ccc2c(c1)COc1cc(F)ccc1/C2=C(\C)c1noc(=O)[nH]1` [Compound 13d, (E)-3-[1-(3-fluoro-8-{[2-(methoxymethyl)-1H-thieno[3,4-d]imidazol-1-yl]methyl}dibenzo[b,e]oxepin-11(6H)-ylidene)ethyl]-1,2,4-oxadiazol-5(4H)-one], the 50% effective concentration (EC50) in series [1] is 36.7 nM. For the same compound, the CLint scaled at 1 μmol/L in series [2] was 26.7 mL/min/kg.
In series [1], `CCCc1nc2ccccc2n1Cc1ccc2c(c1)COc1cc(F)c(F)cc1/C2=C(\C)c1noc(=O)[nH]1` [Compound 6a, (E)-3-(1-{2,3-difluoro-8-[(2-propyl-1H-benzo[d]imidazol-1-yl)methyl]dibenzo[b,e]oxepin-11(6H)-ylidene}ethyl)-1,2,4-oxadiazol-5(4H)-one] gave an EC50 of 11.5 nM. Moreover, the CLint scaled at 1 μmol/L in series [2] was 33.3 mL/min/kg.
